Molecules are shown by their SMILES.

This experiment relates to RAW264.7. Description: Antiinflammatory activity in mouse RAW264.7 cells assessed as inhibition of LPS-induced nitric oxide production after 18 hrs by Griess reagent method. Type of experiment: functional, cell-based. The settings on record: RAW264.7, 18 h. In general terms: Nitrite, measured by Griess reagent, commonly stands in for NO production.

One may read the IC50 as the point on the concentration scale where inhibition reaches its midpoint. As for `COc1cc([C@@H]2OC[C@@H]3[C@H]2CO[C@@H]3c2ccc(OC34OCOC3=CC(=O)[C@@H]([C@@H]3OC[C@H]5[C@@H]3CO[C@H]5c3ccc(OC)c(OC)c3)[C@@H]4O)c(OC)c2)ccc1O` (some centres not stated) [ZANTHPODOCARPIN B], the IC50 was 12.2 µM. Next, `COc1ccc([C@@H]2OC[C@@H]3[C@H]2CO[C@H]3[C@@H]2C(=O)C=C3OCOC3(Oc3ccc([C@H]4OC[C@@H]5[C@H]4CO[C@H]5c4ccc5c(c4)OCO5)cc3OC)[C@H]2O)cc1OC` (some centres not stated) [ZANTHPODOCARPINS A]: 5.31 µM.

The values are drawn from ChEMBL document CHEMBL1641408, “Two dimeric lignans with an unusual α,β-unsaturated ketone motif from Zanthoxylum podocarpum and their inhibitory effects on nitric oxide production” (Bioorg Med Chem Lett, 2011).
